Assay results published in patent publication US20210215714A1, “COMPLEMENT ALTERNATIVE PATHWAY-ASSOCIATED NEPHROPATHY BIOMARKERS” (Achillion Pharmaceuticals, Inc., priority 2018, published 2021).
“Also recorded” adds a separate entry of the source.

System: sC5b-9
Assay: Phase 2a study: urinary sC5b-9 (MicroVue sC5b-9 Enzyme Immunoassay);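 note: urine from C3 glomerulopathy or IC-MPGN patients, sandwich ELISA capturing sC5b-9 via C9-ring monoclonal with HRP detection read at 450 nm, values raw or normalized to creatinine or albumin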
Details: for Urine sC5b-9 / sC5b-9/ALB / sC5b-9/Cr: 200 mg TID; for sC5b-9/ALB GEOMEAN / sC5b-9/ALB MEAN / sC5b-9/Cr MEAN / Urine sC5b-9 GEOMEAN / Urine sC5b-9 MEAN / sC5b-9/Cr GEOMEAN: patients A-F
From the text: 10 patients with either C3 Glomerulopathy (C3G) or Immune-Complex Membranoproliferative Glomerulonephritis (IC-MPGN) are to be enrolled across two dose groups. […] Inclusion criteria include a clinical diagnosis of C3G (C3 glomerulonephritis [C3GN] or dense deposit disease [DDD], the 2 types of C3G) or idiopathic immune-complex membranoproliferative glomerulonephritis (IC-MPGN) by renal biopsy for at least 3 months prior to dosing, with the pathologic diagnosis verified by review of the renal biopsy by the study central pathologist. Patients must have low C3 levels (<50% of the lower limit of normal) and normal or near-normal C4 levels (>90% of the lower limit of normal).
To measure urinary sC5b-9 production, patient urine samples were tested utilizing the MicroVue sC5b-9 Enzyme Immunoassay for the quantitation of sC5b-9 in urine. […] The samples were tested utilizing the MicroVue sC5b-9 Enzyme Immunoassay for the quantitation of sC5b-9 urine, which is a three-step procedure utilizing a micro-assay plate coated with a mouse monoclonal antibody that binds specifically to the C9 ring of sC5b-9, HRP-conjugated antibodies to antigens of sC5b-9, and a chromogenic substrate. In step 1, standards, controls, and test specimens are added to micro-assay wells pre-coated with an anti-sC5b-9 specific monoclonal antibody. sC5b-9 present in the Standards, Controls, or specimens will bind to the immobilized sC5b-9 monoclonal antibody. After incubation, a wash cycle removes unbound material. […] In step 2, horseradish peroxidase (HRP)-conjugated antibodies to antigens of sC5b-9 are added to each test well. The enzyme conjugated antibodies bind to sC5b-9 that was captured by the monoclonal anti-sC5b-9 bound on the surface of the micro-assay wells. After incubation, a wash cycle removes unbound, excess conjugate. In step 3, a chromogenic enzyme substrate is added to each micro-assay well. The bound HRP-conjugate reacts with the substrate, forming a blue color. After incubation the enzyme reaction is stopped chemically, the color changes to yellow, and the color intensity is measured spectrophotometrically at 450 nm. The color intensity of the reaction mixture is proportional to the concentration of sC5b-9 present in the test specimens, standards, and controls. […] Measurements of urinary biomarkers are typically normalized to urine creatinine or albumin levels to account for variation in biomarker levels due to changes in urinary filtration rate.

## CC(=O)c1nn(CC(=O)N2C[C@H](F)C[C@H]2C(=O)Nc2cccc(Br)n2)c2ccc(-c3cnc(C)nc3)cc12 [Compound 1, (2S,4R)-1-(2-(3-acetyl-5-(2-methylpyrimidin-5-yl)-1H-indazol-1-yl)acetyl)-N-(6-bromopyridin-2-yl)-4-fluoropyrrolidine-2-carboxamide]
Patient D, Day 21 Taper
  Urine sC5b-9: 44.0 ng/mL
  sC5b-9/ALB: 18 ng/mg
  sC5b-9/Cr: 10.5 µg/mmol
Patient D, Follow-Up Day 24
  Urine sC5b-9: 39.9 ng/mL
  sC5b-9/ALB: 21 ng/mg
  sC5b-9/Cr: 5.9 µg/mmol
Patient D, Follow-Up Day 28
  Urine sC5b-9: 57.8 ng/mL
  sC5b-9/ALB: 21 ng/mg
  sC5b-9/Cr: 12.0 µg/mmol
Patient D, Follow-Up Day 49
  Urine sC5b-9: 40.3 ng/mL
  sC5b-9/ALB: 16 ng/mg
  sC5b-9/Cr: 10.3 µg/mmol
Patient D, Screen
  Urine sC5b-9: 148.7 ng/mL
  sC5b-9/ALB: 34 ng/mg
  sC5b-9/Cr: 19.6 µg/mmol
Patient E, Day 1/0 Hour
  sC5b-9/ALB: 127 ng/mg
  sC5b-9/Cr: 54.0 µg/mmol
Patient E, Day 1 predose
  Urine sC5b-9: 959 ng/mL
Patient E, Day 4
  Urine sC5b-9: 538 ng/mL
  sC5b-9/ALB: 61 ng/mg
Patient E, Day 7
  Urine sC5b-9: 484 ng/mL
Patient E, Day 7/0 Hour
  sC5b-9/ALB: 59 ng/mg
  sC5b-9/Cr: 31.5 µg/mmol
Patient E, Day 10
  Urine sC5b-9: 212 ng/mL
  sC5b-9/ALB: 26 ng/mg
  sC5b-9/Cr: 16.1 µg/mmol
Patient E, Day 14
  Urine sC5b-9: 112 ng/mL
  sC5b-9/ALB: 19 ng/mg
  sC5b-9/Cr: 5.0 µg/mmol
Patient E, Day 15 Taper
  Urine sC5b-9: 70 ng/mL
  sC5b-9/ALB: 23 ng/mg
  sC5b-9/Cr: 7.5 µg/mmol
Patient E, Day 16 Taper
  Urine sC5b-9: 42 ng/mL
  sC5b-9/ALB: 15 ng/mg
  sC5b-9/Cr: 4.2 µg/mmol
Patient E, Day 17 Taper
  Urine sC5b-9: 74 ng/mL
  sC5b-9/ALB: 20 ng/mg
  sC5b-9/Cr: 9.4 µg/mmol
Patient E, Day 21 Taper
  Urine sC5b-9: 97 ng/mL
  sC5b-9/ALB: 50 ng/mg
  sC5b-9/Cr: 12.7 µg/mmol
Patient E, Follow-Up Day 24
  Urine sC5b-9: 188 ng/mL
  sC5b-9/ALB: 50 ng/mg
  sC5b-9/Cr: 15.1 µg/mmol
Patient E, Follow-Up Day 28
  Urine sC5b-9: 141 ng/mL
  sC5b-9/ALB: 28 ng/mg
  sC5b-9/Cr: 8.5 µg/mmol
Patient E, Follow-Up Day 49
  Urine sC5b-9: 217 ng/mL
  sC5b-9/ALB: 42 ng/mg
Patient F, Day 1/0 Hour
  sC5b-9/ALB: 120 ng/mg
  sC5b-9/Cr: 35.2 µg/mmol
Patient F, Day 1 predose
  Urine sC5b-9: 348 ng/mL
Patient F, Day 4
  Urine sC5b-9: 43 ng/mL
  sC5b-9/ALB: 58 ng/mg
  sC5b-9/Cr: 8.8 µg/mmol
Patient F, Day 7
  Urine sC5b-9: 54 ng/mL
Patient F, Day 7/0 Hour
  sC5b-9/ALB: 147 ng/mg
  sC5b-9/Cr: 13.9 µg/mmol
Patient F, Day 10
  Urine sC5b-9: 34 ng/mL
Patient F, Day 14
  Urine sC5b-9: 62 ng/mL
  sC5b-9/ALB: 37 ng/mg
  sC5b-9/Cr: 6.7 µg/mmol
Patient F, Day 15 Taper
  Urine sC5b-9: 35 ng/mL
  sC5b-9/ALB: 8 ng/mg
  sC5b-9/Cr: 5.8 µg/mmol
Patient F, Day 16 Taper
  Urine sC5b-9: 25 ng/mL
  sC5b-9/ALB: 30 ng/mg
  sC5b-9/Cr: 7.0 µg/mmol
Patient F, Day 17 Taper
  Urine sC5b-9: 55 ng/mL
  sC5b-9/ALB: 12 ng/mg
  sC5b-9/Cr: 5.9 µg/mmol
Patient F, Day 21 Taper
  Urine sC5b-9: 104 ng/mL
  sC5b-9/ALB: 24 ng/mg
  sC5b-9/Cr: 8.2 µg/mmol
Patient F, Follow-Up Day 24
  Urine sC5b-9: 51 ng/mL
  sC5b-9/ALB: 34 ng/mg
  sC5b-9/Cr: 9.5 µg/mmol
Patient F, Follow-Up Day 28
  Urine sC5b-9: 65 ng/mL
  sC5b-9/ALB: 57 ng/mg
  sC5b-9/Cr: 14.4 µg/mmol
Patient F, Follow-Up Day 49
  Urine sC5b-9: 180 ng/mL
  sC5b-9/ALB: 59 ng/mg
  sC5b-9/Cr: 33.2 µg/mmol
Day 1/0 Hour
  sC5b-9/ALB GEOMEAN: 125.0 ng/mg
  sC5b-9/ALB MEAN: 335.0 ng/mg
  sC5b-9/Cr MEAN: 163.6 µg/mmol
Day 1 predose
  Urine sC5b-9 GEOMEAN: 210 ng/mL
  Urine sC5b-9 MEAN: 1120 ng/mL
Day 4
  Urine sC5b-9 GEOMEAN: 94 ng/mL
  Urine sC5b-9 MEAN: 472 ng/mL
  sC5b-9/ALB GEOMEAN: 80.6 ng/mg
  sC5b-9/ALB MEAN: 165.3 ng/mg
  sC5b-9/Cr GEOMEAN: 14.0 µg/mmol
  sC5b-9/Cr MEAN: 37.0 µg/mmol
Day 7
  Urine sC5b-9 GEOMEAN: 91 ng/mL
  Urine sC5b-9 MEAN: 483 ng/mL
Day 7/0 Hour
  sC5b-9/ALB GEOMEAN: 102.8 ng/mg
  sC5b-9/ALB MEAN: 171.5 ng/mg
  sC5b-9/Cr GEOMEAN: 17.1 µg/mmol
  sC5b-9/Cr MEAN: 38.0 µg/mmol
Day 10
  Urine sC5b-9 GEOMEAN: 56 ng/mL
  Urine sC5b-9 MEAN: 231 ng/mL
Day 15 Taper
  Urine sC5b-9 GEOMEAN: 66 ng/mL
  Urine sC5b-9 MEAN: 588 ng/mL
  sC5b-9/ALB GEOMEAN: 48.2 ng/mg
  sC5b-9/ALB MEAN: 192.6 ng/mg
  sC5b-9/Cr GEOMEAN: 11.9 µg/mmol
  sC5b-9/Cr MEAN: 55.8 µg/mmol
Day 17 Taper
  Urine sC5b-9 GEOMEAN: 71 ng/mL
  Urine sC5b-9 MEAN: 488 ng/mL
  sC5b-9/ALB GEOMEAN: 51.5 ng/mg
  sC5b-9/ALB MEAN: 191.3 ng/mg
  sC5b-9/Cr GEOMEAN: 11.6 µg/mmol
  sC5b-9/Cr MEAN: 45.3 µg/mmol
Day 21 Taper
  Urine sC5b-9 GEOMEAN: 99 ng/mL
  Urine sC5b-9 MEAN: 468 ng/mL
  sC5b-9/ALB GEOMEAN: 76.3 ng/mg
  sC5b-9/ALB MEAN: 190.1 ng/mg
  sC5b-9/Cr GEOMEAN: 15.2 µg/mmol
  sC5b-9/Cr MEAN: 58.3 µg/mmol
Follow-Up Day 24
  Urine sC5b-9 GEOMEAN: 108 ng/mL
  Urine sC5b-9 MEAN: 724 ng/mL
  sC5b-9/ALB GEOMEAN: 92.3 ng/mg
  sC5b-9/ALB MEAN: 289.8 ng/mg
  sC5b-9/Cr GEOMEAN: 17.8 µg/mmol
  sC5b-9/Cr MEAN: 115.8 µg/mmol
Follow-Up Day 28
  Urine sC5b-9 GEOMEAN: 113 ng/mL
  Urine sC5b-9 MEAN: 457 ng/mL
  sC5b-9/ALB GEOMEAN: 80.5 ng/mg
  sC5b-9/ALB MEAN: 200.5 ng/mg
  sC5b-9/Cr MEAN: 64.2 µg/mmol
Follow-Up Day 49
  Urine sC5b-9 GEOMEAN: 162 ng/mL
  Urine sC5b-9 MEAN: 2440 ng/mL
  sC5b-9/ALB GEOMEAN: 123.3 ng/mg
  sC5b-9/ALB MEAN: 1111.7 ng/mg
  sC5b-9/Cr GEOMEAN: 23.5 µg/mmol
  sC5b-9/Cr MEAN: 159.5 µg/mmol
two-week treatment
  Urinary sC5b-9 levels: reduced significantly; also recorded: reduced in all patients
  Urinary sC5b-9 levels normalized to urinary creatinine or albumin: reduced significantly
